Patent publication US20090299044A1 (priority 2006, published 2009)
Bridge positions count the residues as written; N and C are the ends. Peptide text beside a SMILES is read from it.

Columns and labels:
human Kv1.3 (CHO) = molecular target: T1, human Kv1.3 (CHO) (Homo sapiens, UniProt P22001); assay: cell-based
T1 construct: expressed in transfected cells; host or cells: CHO

human Kv1.1 (HEK293) = molecular target: T2, human Kv1.1 (HEK293) (Homo sapiens, UniProt Q09470); assay: cell-based
T2 construct: expressed in transfected cells; host or cells: HEK293
T2 sequence (Q09470 whole entry): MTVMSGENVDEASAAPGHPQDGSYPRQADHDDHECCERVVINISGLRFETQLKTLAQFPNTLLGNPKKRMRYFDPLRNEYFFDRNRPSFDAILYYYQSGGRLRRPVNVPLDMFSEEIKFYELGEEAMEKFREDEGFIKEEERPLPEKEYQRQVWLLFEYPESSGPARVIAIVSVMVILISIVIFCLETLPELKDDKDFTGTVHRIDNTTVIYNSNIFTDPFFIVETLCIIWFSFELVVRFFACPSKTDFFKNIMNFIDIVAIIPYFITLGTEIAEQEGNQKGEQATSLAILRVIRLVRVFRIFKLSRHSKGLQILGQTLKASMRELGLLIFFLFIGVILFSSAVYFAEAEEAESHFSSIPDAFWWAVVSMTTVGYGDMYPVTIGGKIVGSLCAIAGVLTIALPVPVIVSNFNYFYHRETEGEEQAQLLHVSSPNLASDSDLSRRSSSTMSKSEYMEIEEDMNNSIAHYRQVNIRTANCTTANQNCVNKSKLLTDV

T1 sequence (P22001 whole entry): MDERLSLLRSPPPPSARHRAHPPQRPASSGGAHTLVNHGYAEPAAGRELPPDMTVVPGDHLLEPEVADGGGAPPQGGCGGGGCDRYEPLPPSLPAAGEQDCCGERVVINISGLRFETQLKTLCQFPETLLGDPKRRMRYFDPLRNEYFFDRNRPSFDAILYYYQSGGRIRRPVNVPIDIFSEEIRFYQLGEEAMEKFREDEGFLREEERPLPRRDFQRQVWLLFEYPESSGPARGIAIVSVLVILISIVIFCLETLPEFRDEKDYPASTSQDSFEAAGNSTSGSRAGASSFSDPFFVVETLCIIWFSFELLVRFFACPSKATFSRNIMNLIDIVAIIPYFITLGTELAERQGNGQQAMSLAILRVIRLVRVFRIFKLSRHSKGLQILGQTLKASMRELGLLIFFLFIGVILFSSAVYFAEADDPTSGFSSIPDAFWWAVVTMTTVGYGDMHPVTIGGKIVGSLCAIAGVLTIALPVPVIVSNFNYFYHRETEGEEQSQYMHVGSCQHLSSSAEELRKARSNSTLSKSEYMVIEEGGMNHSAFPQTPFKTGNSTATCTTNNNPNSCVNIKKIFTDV

Row | Structure (SMILES) | IC50 (human Kv1.3 (CHO)) [nM] | IC50 (human Kv1.1 (HEK293)) [nM]
1 | CC[C@H](C)[C@@H]1NC(=O)[C@H](CCCCN)NC(=O)[C@@H](NC(=O)[C@H](CCCCN)NC(=O)[C@@H](NC(=O)[C@H](CC(N)=O)NC(=O)[C@@H](NC(=O)[C@@H](NC(=O)[C@@H](NC(=O)CN)C(C)C)[C@@H](C)CC)[C@@H](C)CC)C(C)C)CSSC[C@@H]2NC(=O)[C@H](CCCCN)NC(=O)CNC(=O)[C@H](Cc3ccccc3)NC(=O)[C@H](CCCNC(=N)N)NC(=O)[C@H](CCSC)NC(=O)CNC(=O)[C@H](C)NC(=O)[C@H](CCCCN)NC(=O)[C@H](CCCCN)NC(=O)[C@@H]3CSSC[C@@H](C(=O)N[C@H](C(=O)N4CCC[C@H]4C(=O)N[C@@H](CCCCN)C(=O)O)[C@@H](C)O)NC(=O)[C@H](Cc4c[nH]cn4)NC(=O)[C@H](CSSC[C@H](NC(=O)[C@H](CCC(N)=O)NC(=O)[C@H](CCCNC(=N)N)NC(=O)[C@H](CO)NC1=O)C(=O)N[C@@H](CC(C)C)C(=O)N[C@@H](C)C(=O)N1CCC[C@H]1C(=O)N3)NC(=O)[C@H](CCCCN)NC(=O)CNC(=O)[C@H](CC(N)=O)NC(=O)[C@H](CCSC)NC2=O [E16A] (H-GVIINVKCKISRQCLAPCKKAGMRFGKCMNGKCHCTPK-OH; disulfide 8-28, 14-33, 18-35) | 0.0216 | 0.00687
2 | CC[C@H](C)[C@@H]1NC(=O)[C@H](CCCCN)NC(=O)[C@@H](NC(=O)[C@H](CCCCN)NC(=O)[C@@H](NC(=O)[C@H](CC(N)=O)NC(=O)[C@@H](NC(=O)[C@@H](NC(=O)[C@@H](NC(=O)CN)C(C)C)[C@@H](C)CC)[C@@H](C)CC)C(C)C)CSSC[C@@H]2NC(=O)[C@H](CCCCN)NC(=O)CNC(=O)[C@H](Cc3ccccc3)NC(=O)[C@H](CCCNC(=N)N)NC(=O)[C@H](CCSC)NC(=O)CNC(=O)[C@H](C)NC(=O)[C@H](CCCCN)NC(=O)[C@H](CCCCN)NC(=O)[C@@H]3CSSC[C@@H](C(=O)N[C@H](C(=O)N4CCC[C@H]4C(=O)N[C@@H](CCCCN)C(=O)O)[C@@H](C)O)NC(=O)[C@H](Cc4c[nH]cn4)NC(=O)[C@H](CSSC[C@H](NC(=O)[C@H](CCCNC(=N)N)NC(=O)[C@H](CCCNC(=N)N)NC(=O)[C@H](CO)NC1=O)C(=O)N[C@@H](CC(C)C)C(=O)N[C@@H](CCC(=O)O)C(=O)N1CCC[C@H]1C(=O)N3)NC(=O)[C@H](CCCCN)NC(=O)CNC(=O)[C@H](CC(N)=O)NC(=O)[C@H](CCSC)NC2=O [Q13R] (H-GVIINVKCKISRRCLEPCKKAGMRFGKCMNGKCHCTPK-OH; disulfide 8-28, 14-33, 18-35) | 0.0153 | < 0.00152
3 | CC[C@H](C)[C@@H]1NC(=O)[C@H](CCCCN)NC(=O)[C@@H](NC(=O)[C@H](CCCCN)NC(=O)[C@@H](NC(=O)[C@H](CC(N)=O)NC(=O)[C@@H](NC(=O)[C@@H](NC(=O)[C@@H](NC(=O)CN)C(C)C)[C@@H](C)CC)[C@@H](C)CC)C(C)C)CSSC[C@@H]2NC(=O)[C@H](CCCCN)NC(=O)CNC(=O)[C@H](C)NC(=O)[C@H](CCCNC(=N)N)NC(=O)[C@H](CCSC)NC(=O)CNC(=O)[C@H](C)NC(=O)[C@H](CCCCN)NC(=O)[C@H](CCCCN)NC(=O)[C@@H]3CSSC[C@@H](C(=O)N[C@H](C(=O)N4CCC[C@H]4C(=O)N[C@@H](CCCCN)C(=O)O)[C@@H](C)O)NC(=O)[C@H](Cc4c[nH]cn4)NC(=O)[C@H](CSSC[C@H](NC(=O)[C@H](CCC(N)=O)NC(=O)[C@H](CCCNC(=N)N)NC(=O)[C@H](CO)NC1=O)C(=O)N[C@@H](CC(C)C)C(=O)N[C@@H](CCC(=O)O)C(=O)N1CCC[C@H]1C(=O)N3)NC(=O)[C@H](CCCCN)NC(=O)CNC(=O)[C@H](CC(N)=O)NC(=O)[C@H](CCSC)NC2=O [F25A] (H-GVIINVKCKISRQCLEPCKKAGMRAGKCMNGKCHCTPK-OH; disulfide 8-28, 14-33, 18-35) | 1.49 | 0.0473
